Results as given in patent publication US9980993B2, “Nutraceutical supplement with Lactobacillus rhamnosus” (NWO Stem Cure, LLC, priority 2014, dated 2018).

Tested on: human MSC
Test: Anti-oxidative stress testing, LIVE/DEAD Viability/Cytotoxicity Assay with H2O2
Assay type: cell-based
Settings: MSCs, 12 hours of oxidative stress (100 μM H2O2)
Experimental: The percentage of live and dead cells was determined simultaneously by measuring intracellular esterase activity and plasma membrane integrity using the LIVE/DEAD® Viability/Cytotoxicity Assay Kit (Life Technologies). Briefly, human MSC were plated on 24 wells plate. On, next day cells were treated with ingredients and 100 μM H2O2 for 12 hr. The supernatant media from each well was collected into microtubes and cells were washed with 1×PBS, followed by collection of washes into respective microtubes to collect any floating or dead cells. The cells attached to the bottom of the plate were incubated in 1×PBS in a 37° C. incubator. The microtubes were centrifuged at 2000 rpm for 3 min to get the cell pellet. After removing supernatant, cell pellet was resuspended into 1×PBS containing 2 μM calcein AM and 4 μM ethidium/homodimer. […] The cells were then imaged under 10× objective using fluorescence microscope (Olympus IX71).
The percentage of live and dead cells was determined simultaneously by measuring intracellular esterase activity and plasma membrane integrity using the LIVE/DEAD® Viability/Cytotoxicity Assay Kit (Life Technologies). […] The cells were then imaged under 10× objective using fluorescence microscope (Olympus IX71).
Fluorescence microscope images showing a percentage of live and dead MSCs in 24 wells after 12 hours of treatment with oxidative stress (100 μM H2O2) were examined. […]

Compound: C=C1CC[C@H](O)C/C1=C/C=C1\CCC[C@]2(C)[C@@H]([C@H](C)CCCC(C)C)CC[C@@H]12 [Vitamin D alone (0.3 mg), cholecalciferol]
- Cell Survival Rate Measured by Fluorescence Microscope (%): 2.5%
